Tests used:
Type in all cases: biochemical
[1] = target: T1, cathepsin K (Homo sapiens, UniProt P43235); assay: recombinant enzyme, fluorogenic substrate Cbz-FR-AMC, Morrison plot Ki
T1 construct: gene CTSK
T1 sequence (P43235 115-329): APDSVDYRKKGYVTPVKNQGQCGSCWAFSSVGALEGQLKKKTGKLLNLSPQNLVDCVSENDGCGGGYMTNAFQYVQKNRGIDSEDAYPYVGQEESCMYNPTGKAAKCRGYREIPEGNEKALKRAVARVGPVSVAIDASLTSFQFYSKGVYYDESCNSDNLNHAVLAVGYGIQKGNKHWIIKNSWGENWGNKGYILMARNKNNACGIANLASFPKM

[2] = target: T2, cathepsin V (Homo sapiens, UniProt O60911); assay: as above
T2 construct: gene CTSV
T2 sequence (O60911 114-334): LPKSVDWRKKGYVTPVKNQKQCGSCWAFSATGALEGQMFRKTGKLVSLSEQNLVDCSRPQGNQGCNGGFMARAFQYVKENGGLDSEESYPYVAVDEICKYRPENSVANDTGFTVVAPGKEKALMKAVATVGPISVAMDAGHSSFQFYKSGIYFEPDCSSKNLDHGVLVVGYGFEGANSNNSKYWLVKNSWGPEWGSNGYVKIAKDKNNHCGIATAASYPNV

[3] = target: T3, cathepsin B (Homo sapiens, UniProt P07858); assay: recombinant enzyme, fluorogenic substrate Cbz-RR-AMC, Morrison plot Ki
T3 construct: gene CTSB

[4] = target: T4, cathepsin S (Homo sapiens, UniProt P25774); assay: recombinant enzyme, fluorogenic substrate Cbz-VVR-AMC, Morrison plot Ki
T4 construct: gene CTSS
T4 sequence (P25774 115-331): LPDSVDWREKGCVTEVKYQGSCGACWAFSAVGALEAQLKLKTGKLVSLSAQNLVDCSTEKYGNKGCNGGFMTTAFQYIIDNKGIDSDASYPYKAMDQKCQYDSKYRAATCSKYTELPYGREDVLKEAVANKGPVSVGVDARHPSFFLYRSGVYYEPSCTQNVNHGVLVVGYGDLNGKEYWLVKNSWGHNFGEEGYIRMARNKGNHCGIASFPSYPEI

[5] = target: T5, cathepsin L (Homo sapiens, UniProt P07711); assay: recombinant enzyme, fluorogenic substrate Cbz-FR-AMC, Morrison plot Ki (limited activity)
T5 construct: gene CTSL
T5 sequence (P07711 114-288): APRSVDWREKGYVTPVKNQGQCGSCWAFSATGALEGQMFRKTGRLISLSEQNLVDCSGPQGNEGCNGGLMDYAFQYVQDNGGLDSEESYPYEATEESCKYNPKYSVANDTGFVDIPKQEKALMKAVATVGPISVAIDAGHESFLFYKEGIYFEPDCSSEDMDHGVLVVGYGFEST
T5 sequence (P07711 292-333): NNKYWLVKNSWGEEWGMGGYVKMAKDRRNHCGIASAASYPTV

CS(=O)(=O)C[C@H](N[C@@H](c1ccc(F)cc1)C(F)(F)F)C(=O)NC1(C#N)CC1 [compound 6]
Ki [1]: 0.155 µM | Ki [2]: 0.784 µM | Ki [3]: 1.94 µM | Ki [4]: 0.00271 µM | Ki [5]: 7.87 µM
